Reference: US20150283110A1, “COMPOSITION FOR PREVENTING OR TREATING HEART DISEASE” (AMOREPACIFIC CORPORATION, priority 2012, published 2015)

Columns and labels:
cardiomyocytes = assay: Cardiomyocyte protection from cell death induced by reactive oxygen species (H2O2, MTT); type: cell-based, rat; conditions: 250 mM H2O2 2 hours, then 5, 20 or 50 mM for 24 hours; MTT OD 540 nm; FIGS. 2 and 3
Description: Cardiomyocytes isolated and cultured according to the substantially same method as described in Test Example 1 were treated with 250 mM hydrogen peroxide (H2O2) for 2 hours in a serum-free medium to induce cell death by reactive oxygen species. 2 hours later, after removing the medium and washing with PBS, the cells were treated with 5, 20 or 50 mM (+)-syringaresinol and (−)-syringaresinol for 24 hours. After adding a 3-[4,5-dimethylthiazolyl]-2,5-diphenyltetrazolium bromide (MTT, Sigma) solution to the cells and incubating at 37° C. for 4 hours, dimethyl sulfoxide was added and the optical density (OD) of the formed formazan dye was measured at a wavelength of 540 nm using an ELISA reader (Thermo Max, Molecular Devices Co.).

SIRT1 gene [1] = assay: SIRT1 gene expression promoting effect in cardiomyocytes (RT-PCR); type: cell-based; design: change of the expression of the SIRT1 gene: dose or concentration left out as unconfirmed; conditions: rat cardiomyocytes, FIG. 1; for change of the expression of the SIRT1 gene: serum-free, 24 hours, DMSO control
Description: The SIRT1 gene expression promoting effect of the two optical isomers of syringaresinol in rat cardiomyocytes was evaluated as follows.
The heart of a 1-2 day old Sprague-Dawley rat was excised, immersed in an HBSS solution, cut into pieces with scissors and kept overnight in a trypsin/EDTA solution inside a shaker at 4° C. The next day, the trypsin solution was discarded and a 10% FCS/DMEM solution was added to inhibit trypsin activity. After discarding the FCS/DMEM, adding a collagenase solution and keeping in a shaking bath at 37° C. for about 3 minutes, only the supernatant was collected in a conical tube. This procedure was repeated three times. After centrifuging the collected solution at 750 rpm for 5 minutes, the resulting pellets were resuspended in a 10% FCS/DMEM solution, transferred to a culture flask and then incubated at 37° C. for 75 minutes. The suspension was transferred to a fresh culture flask, incubated again for 75 minutes, transferred to a conical tube and then plated after cell counting. The plated cells were cultured in a 10% FCS/DMEM medium for 3-4 days until confluence and the medium was treated respectively with the (+)-syringaresinol (50 mM) obtained in Example and with the (−)-syringaresinol (50 mM) obtained in Comparative Example for 24 hours after removing the serum. The control group was treated with DMSO. The treated cells were washed 2 times with cold PBS and RNA was extracted therefrom using the TRIzol reagent (Invitrogen). cDNA was synthesized from the extracted and quantitated 1 μg/μL RNA using a reverse transcription system (Promega). The expression profile of the SIRT1 and GAPDH genes was measured using the synthesized cDNA and primers and probes predesigned for the genes (Applied Biosystems; SIRT1, Hs01009006_m1; GAPDH, Hs99999905_m1). PCR reaction and analysis were conducted using the Rotor-Gene 3000 system (Corbett Research, Sydney, Australia).

SIRT1 gene [2] = assay: SIRT1 expression in vascular endothelial cells during induced aging (RT-PCR); type: cell-based; conditions: human vascular endothelial cells, 50 mM every other day, FIG. 8
Description: Human vascular endothelial cells purchased from Lonza (Walkersville, Md., USA) were cultured using the endothelial cell growth medium EGM-2 SingleQuots (Lonza) in a 5% CO2 incubator until 70% confluence. […] The population doubling level (PDL) was calculated according to the following equation for each generation until the cell growth was stopped. The PDL value is higher in aged cells.
14 PDL cells were treated with syringaresinol obtained from ginseng berry [syn(GB)], synthesized (+)-syringaresinol [syn(+)], 1:1 [syn(+/−1:1)], 2:1 [syn(+/−2:1)], 5:1 [syn(syn(+/−5:1))] or 10:1 [syn(syn(+/−10:1))] mixture of synthesized (+)-syringaresinol and synthesized (−)-syringaresinol or syringaresinol obtained from eleuthero [syn(eleuthero)] at a concentration of 50 mM every other day while inducing aging to 40 PDL cells. The cells of a negative control group were treated with DMSO of 1/1000 of the volume of the medium. The cells treated with each sample were washed 2 times with cold PBS and RNA was extracted using the TRIzol reagent (Invitrogen). cDNA was synthesized from the extracted RNA (1 μg/μL) using a reverse transcription system (Promega). Subsequently, the expression profile of the SIRT1 and GAPDH genes was measured using the synthesized cDNA and primers and probes predesigned for the genes (Applied Biosystems; SIRT1, Hs01009006_m1; GAPDH, Hs99999905_m1). […]

Structure (SMILES)	death of cardiomyocytes induced by reactive oxygen species (cardiomyocytes)	effect of increasing the SIRT1 expression compared with syringaresinol obtained from ginseng berry (SIRT1 gene [1])	change of the expression of the SIRT1 gene (SIRT1 gene [1])	SIRT1 expression compared with cells treated with syringaresinol obtained from ginseng berry (SIRT1 gene [2])	SIRT1 expression as compared to the cells treated only with DMSO (SIRT1 gene [2]; 14 PDL to 40 PDL)
COc1cc([C@H]2OC[C@H]3[C@@H]2CO[C@@H]3c2cc(OC)c(O)c(OC)c2)cc(OC)c1O [(+)-syringaresinol, (8R,8′R)-(+)-syringaresinol]	suppressed the death of the cardiomyocytes induced by the reactive oxygen species in a concentration-dependent manner	better effect of increasing the SIRT1 expression than the syringaresinol obtained from ginseng berry	increase the SIRT1 expression in cardiomyocyte in concentration-dependent manners	higher SIRT1 expression than the cells treated with the syringaresinol obtained from ginseng berry	≥ 4 times
COc1cc(C2OCC3C(c4cc(OC)c(O)c(OC)c4)OCC23)cc(OC)c1O (single isomer, unassigned; (-)) [(−)-syringaresinol, reference compound]	promoted cell death	–	cannot increase the expression of the SIRT1 gene	–	–
COc1cc(C2OCC3C(c4cc(OC)c(O)c(OC)c4)OCC23)cc(OC)c1O (centres unmarked) [syringaresinol obtained from ginseng berry]	–	–	increase the SIRT1 expression in cardiomyocyte in concentration-dependent manners	–	–
